Measurements taken from ChEMBL document CHEMBL1201862, “PubChem BioAssay data set” (2004).
Calls of active or inactive are those of the source.

Columns and labels:
[1] = molecular target: T1, Caspase-3 (Homo sapiens, UniProt P42574); format: functional;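 also: Dose-response selectivity test against caspase-3 for candidate inhibitors of sentrin-specific proteases (SENPs)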
T1 sequence (P42574 whole entry): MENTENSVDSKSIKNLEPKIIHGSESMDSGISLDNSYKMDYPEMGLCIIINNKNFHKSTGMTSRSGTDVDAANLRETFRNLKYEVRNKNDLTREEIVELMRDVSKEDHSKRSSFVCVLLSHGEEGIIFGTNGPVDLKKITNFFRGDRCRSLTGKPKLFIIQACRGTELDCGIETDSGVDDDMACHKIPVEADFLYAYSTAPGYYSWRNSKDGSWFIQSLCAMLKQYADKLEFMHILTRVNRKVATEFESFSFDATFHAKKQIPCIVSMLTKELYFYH

[2] = molecular target: T2, Sentrin-specific protease 7 (Homo sapiens, UniProt Q9BQF6); format: functional;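 also: Luminescence-based dose-response confirmation of ultra-high-throughput screening hits, measuring inhibition of SENP7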
T2 sequence (Q9BQF6 whole entry): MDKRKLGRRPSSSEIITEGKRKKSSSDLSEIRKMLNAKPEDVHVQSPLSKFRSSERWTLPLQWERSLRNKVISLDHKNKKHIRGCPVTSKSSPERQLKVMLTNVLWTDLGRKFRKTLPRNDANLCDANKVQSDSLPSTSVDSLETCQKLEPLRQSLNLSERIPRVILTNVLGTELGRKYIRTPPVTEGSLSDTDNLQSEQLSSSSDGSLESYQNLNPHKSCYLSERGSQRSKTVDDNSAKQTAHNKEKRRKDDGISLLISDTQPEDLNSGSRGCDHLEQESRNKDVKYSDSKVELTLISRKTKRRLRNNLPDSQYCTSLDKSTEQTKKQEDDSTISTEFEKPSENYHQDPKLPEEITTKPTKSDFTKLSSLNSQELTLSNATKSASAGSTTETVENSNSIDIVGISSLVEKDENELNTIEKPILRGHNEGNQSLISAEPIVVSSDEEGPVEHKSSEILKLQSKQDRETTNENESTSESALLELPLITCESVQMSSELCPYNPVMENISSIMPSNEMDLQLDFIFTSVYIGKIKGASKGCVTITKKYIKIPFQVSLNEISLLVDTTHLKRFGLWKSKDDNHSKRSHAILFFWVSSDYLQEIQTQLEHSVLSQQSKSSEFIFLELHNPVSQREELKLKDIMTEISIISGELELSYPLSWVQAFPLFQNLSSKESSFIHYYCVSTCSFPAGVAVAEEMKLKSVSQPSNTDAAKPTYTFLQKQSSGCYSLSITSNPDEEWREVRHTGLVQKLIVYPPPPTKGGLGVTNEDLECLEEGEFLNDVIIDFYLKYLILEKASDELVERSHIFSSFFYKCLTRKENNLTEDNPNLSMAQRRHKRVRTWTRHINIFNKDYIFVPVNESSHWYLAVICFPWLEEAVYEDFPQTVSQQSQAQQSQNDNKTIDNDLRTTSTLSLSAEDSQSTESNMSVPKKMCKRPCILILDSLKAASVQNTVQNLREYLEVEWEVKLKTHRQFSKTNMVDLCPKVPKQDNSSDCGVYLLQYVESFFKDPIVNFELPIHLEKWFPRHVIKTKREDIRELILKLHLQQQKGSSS

[3] = molecular target: T3, Sentrin-specific protease 6 (Homo sapiens, UniProt Q9GZR1); format: functional;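 also: Luminescence-based dose-response confirmatory assay of SENP6 inhibition, following up an ultra-high-throughput screen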
T3 sequence (Q9GZR1 whole entry): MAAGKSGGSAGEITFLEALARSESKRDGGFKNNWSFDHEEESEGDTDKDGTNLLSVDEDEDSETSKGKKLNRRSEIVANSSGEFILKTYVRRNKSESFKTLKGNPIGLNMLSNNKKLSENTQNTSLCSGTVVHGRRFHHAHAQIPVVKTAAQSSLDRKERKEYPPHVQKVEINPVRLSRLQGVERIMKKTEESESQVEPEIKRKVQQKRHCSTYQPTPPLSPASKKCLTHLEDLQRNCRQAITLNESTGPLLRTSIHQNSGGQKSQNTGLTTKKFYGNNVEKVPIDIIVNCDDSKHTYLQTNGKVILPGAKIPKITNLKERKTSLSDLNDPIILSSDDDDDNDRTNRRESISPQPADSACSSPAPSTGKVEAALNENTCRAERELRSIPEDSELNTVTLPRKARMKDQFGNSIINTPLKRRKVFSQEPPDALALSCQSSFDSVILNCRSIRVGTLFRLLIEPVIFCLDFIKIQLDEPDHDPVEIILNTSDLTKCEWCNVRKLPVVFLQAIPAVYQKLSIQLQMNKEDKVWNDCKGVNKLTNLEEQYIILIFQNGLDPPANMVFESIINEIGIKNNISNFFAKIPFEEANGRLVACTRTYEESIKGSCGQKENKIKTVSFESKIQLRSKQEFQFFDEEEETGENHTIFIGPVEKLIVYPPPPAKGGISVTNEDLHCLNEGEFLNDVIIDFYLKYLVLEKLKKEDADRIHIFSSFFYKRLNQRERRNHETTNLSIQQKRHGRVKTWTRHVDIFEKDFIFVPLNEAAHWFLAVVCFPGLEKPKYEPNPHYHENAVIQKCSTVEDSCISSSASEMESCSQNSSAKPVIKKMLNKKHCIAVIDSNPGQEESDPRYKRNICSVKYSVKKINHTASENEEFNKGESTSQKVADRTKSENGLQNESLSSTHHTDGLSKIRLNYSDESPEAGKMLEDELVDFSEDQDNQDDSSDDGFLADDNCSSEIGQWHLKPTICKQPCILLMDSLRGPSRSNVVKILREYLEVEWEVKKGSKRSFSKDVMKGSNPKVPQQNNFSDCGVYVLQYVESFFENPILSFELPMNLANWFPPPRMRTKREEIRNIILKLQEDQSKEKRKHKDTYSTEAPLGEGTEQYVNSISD

[4] = molecular target: T4, Sentrin-specific protease 8 (Homo sapiens, UniProt Q96LD8); format: functional;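 also: luminescence read-out of SENP8 inhibition, dose-response confirmation following an ultra-high-throughput screen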
T4 sequence (Q96LD8 whole entry): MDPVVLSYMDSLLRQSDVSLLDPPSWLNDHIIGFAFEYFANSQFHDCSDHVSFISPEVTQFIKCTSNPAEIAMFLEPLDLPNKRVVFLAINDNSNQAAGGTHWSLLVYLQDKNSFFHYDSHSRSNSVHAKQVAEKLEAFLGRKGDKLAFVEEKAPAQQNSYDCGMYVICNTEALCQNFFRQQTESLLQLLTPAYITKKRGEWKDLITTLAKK

[5] = system: INS1; assay: beta cell apoptosis inhibitors, cytokine rescue, dose response, luminescence, retest (AID 449756); format: functional, cell-based; details: Rattus norvegicus;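 also: cell death triggered by IL-1 beta plus TNF-alpha plus IFN-gamma mixture; protective hits raise ATP signal compared with cytokine alone wells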
[6] = molecular target: T5, Corticotropin-releasing factor receptor 2/Corticotropin-releasing factor-binding protein (Homo sapiens, UniProt P24387+Q13324); assay: activators of CRF receptor 2 with binding protein – uHTS hits, confirmation (AID 602473); format: functional; details: read-out: EC50_Mean
T5 sequence (Q13324 whole entry): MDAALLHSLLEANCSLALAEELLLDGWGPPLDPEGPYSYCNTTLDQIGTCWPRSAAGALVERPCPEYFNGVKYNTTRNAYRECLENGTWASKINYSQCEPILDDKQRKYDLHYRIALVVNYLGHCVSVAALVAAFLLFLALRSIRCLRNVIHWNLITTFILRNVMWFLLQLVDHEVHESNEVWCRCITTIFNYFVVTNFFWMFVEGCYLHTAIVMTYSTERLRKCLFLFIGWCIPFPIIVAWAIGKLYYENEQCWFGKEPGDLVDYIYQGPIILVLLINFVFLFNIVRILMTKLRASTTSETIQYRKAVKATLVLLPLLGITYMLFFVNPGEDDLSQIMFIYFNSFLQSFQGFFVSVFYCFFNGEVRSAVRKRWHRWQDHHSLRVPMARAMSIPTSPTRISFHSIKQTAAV
T5 sequence (P24387 whole entry): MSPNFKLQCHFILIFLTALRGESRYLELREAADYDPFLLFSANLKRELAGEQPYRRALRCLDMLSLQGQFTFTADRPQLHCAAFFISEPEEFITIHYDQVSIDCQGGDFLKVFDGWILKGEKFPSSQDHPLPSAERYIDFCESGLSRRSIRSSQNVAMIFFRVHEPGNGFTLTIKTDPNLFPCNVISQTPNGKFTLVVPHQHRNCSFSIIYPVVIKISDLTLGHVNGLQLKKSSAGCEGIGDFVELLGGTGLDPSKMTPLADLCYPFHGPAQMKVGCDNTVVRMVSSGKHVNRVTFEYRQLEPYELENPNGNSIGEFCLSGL

[7] = molecular target: T6, Short transient receptor potential channel 4 (Mus musculus, UniProt Q9QUQ5); assay: mouse TRPC4 channel activators, dose response, cell-based, HEK293 TRPC4/mu-opioid, Fluo-4 calcium (AID 434937); format: functional
T6 sequence (Q9QUQ5 whole entry): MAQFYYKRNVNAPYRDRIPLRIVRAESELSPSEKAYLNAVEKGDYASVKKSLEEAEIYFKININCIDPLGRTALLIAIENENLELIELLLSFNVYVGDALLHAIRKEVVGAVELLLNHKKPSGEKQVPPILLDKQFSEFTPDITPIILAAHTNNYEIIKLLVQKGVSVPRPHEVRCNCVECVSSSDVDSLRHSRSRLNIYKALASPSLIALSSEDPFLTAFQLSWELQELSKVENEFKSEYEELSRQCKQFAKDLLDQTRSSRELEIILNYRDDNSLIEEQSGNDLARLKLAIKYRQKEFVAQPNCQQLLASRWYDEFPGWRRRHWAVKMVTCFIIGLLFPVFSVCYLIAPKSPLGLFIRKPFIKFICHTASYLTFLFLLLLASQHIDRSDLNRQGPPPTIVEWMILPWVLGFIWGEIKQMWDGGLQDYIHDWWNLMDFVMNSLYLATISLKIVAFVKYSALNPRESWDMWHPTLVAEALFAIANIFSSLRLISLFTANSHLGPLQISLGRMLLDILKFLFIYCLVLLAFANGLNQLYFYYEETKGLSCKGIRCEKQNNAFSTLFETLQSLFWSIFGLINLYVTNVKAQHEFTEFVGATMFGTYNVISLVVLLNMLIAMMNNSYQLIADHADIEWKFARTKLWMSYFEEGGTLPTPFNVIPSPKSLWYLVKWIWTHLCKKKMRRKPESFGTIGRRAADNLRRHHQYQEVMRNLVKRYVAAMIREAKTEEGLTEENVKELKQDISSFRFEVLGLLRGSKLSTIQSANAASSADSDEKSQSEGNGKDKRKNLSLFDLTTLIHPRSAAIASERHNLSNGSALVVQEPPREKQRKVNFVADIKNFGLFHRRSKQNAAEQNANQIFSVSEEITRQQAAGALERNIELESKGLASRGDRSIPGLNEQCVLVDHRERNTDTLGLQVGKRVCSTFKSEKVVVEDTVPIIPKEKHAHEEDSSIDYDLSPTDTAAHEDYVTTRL

[8] = molecular target: T7, High affinity choline transporter 1 (Homo sapiens, UniProt Q9GZV3); assay: CHT inhibitors, dose response, cell-based, 5-point CRC, membrane potential dye (AID 504840); format: functional
T7 sequence (Q9GZV3 whole entry): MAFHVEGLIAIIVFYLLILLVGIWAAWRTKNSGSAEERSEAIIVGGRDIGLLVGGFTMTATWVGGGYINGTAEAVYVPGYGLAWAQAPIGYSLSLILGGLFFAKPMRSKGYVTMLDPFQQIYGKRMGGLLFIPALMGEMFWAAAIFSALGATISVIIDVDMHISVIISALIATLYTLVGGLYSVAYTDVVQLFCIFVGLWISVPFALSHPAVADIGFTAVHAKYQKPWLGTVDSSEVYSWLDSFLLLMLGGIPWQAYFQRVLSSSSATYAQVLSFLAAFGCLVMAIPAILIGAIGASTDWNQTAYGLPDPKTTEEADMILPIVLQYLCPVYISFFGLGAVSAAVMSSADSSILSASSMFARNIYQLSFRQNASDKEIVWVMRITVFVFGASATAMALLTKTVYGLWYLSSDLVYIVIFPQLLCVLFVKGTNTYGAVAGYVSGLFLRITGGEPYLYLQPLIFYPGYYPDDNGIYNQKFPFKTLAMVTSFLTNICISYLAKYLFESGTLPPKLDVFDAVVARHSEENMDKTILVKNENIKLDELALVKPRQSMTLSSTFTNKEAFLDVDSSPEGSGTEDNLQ

[9] = molecular target: Induced myeloid leukemia cell differentiation protein Mcl-1 (Homo sapiens, UniProt Q07820); format: functional
Sequence of Induced myeloid leukemia cell differentiation protein Mcl-1 (Q07820 whole entry): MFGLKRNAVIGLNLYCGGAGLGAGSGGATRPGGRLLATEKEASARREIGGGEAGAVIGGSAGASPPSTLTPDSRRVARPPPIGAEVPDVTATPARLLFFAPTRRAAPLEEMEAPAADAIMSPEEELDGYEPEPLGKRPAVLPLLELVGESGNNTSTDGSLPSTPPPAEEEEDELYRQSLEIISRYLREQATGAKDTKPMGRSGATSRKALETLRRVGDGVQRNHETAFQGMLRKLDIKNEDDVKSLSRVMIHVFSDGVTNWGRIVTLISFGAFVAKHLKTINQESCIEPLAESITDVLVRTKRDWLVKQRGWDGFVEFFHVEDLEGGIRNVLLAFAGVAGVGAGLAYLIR

[10] = HEp-2 cell cytotoxicity, dose response, cytotoxicity control for RSV inhibitor project, HTS (AID 2410); format: functional; details: human respiratory syncytial virus
[11] = molecular target: Glyceraldehyde-3-phosphate dehydrogenase (Homo sapiens, UniProt P04406)
Sequence of Glyceraldehyde-3-phosphate dehydrogenase (P04406 whole entry): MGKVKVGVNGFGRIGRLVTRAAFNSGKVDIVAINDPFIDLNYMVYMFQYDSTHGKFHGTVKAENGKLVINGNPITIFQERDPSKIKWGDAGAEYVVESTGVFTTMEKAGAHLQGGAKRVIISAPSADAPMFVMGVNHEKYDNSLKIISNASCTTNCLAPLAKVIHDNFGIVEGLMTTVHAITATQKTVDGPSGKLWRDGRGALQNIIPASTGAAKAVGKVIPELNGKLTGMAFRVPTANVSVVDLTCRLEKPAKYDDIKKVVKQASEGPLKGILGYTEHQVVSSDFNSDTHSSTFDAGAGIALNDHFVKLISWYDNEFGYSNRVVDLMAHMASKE

[12] = system: Vero; assay: cells; format: functional; details: Chlorocebus sabaeus

Compound: O=C(Nc1ccc(-c2noc(-c3cccs3)n2)cc1)c1cccnc1
- IC50 [1]: 54.8 µM (active)
- IC50 [2]: 7.2 µM (active)
- IC50 [3]: 76.2 µM (active)
- IC50 [4]: > 100 µM (inactive)
- AC50 [5]: 6.36 µM (active)

Compound: Cn1c2ccccc2c(=O)c2c(=O)n(C3CCCCCC3)c(C3CCCCC3)nc21
- EC50 [6]: 4.04 µM (active)

Compound: COc1ccc(NC(=O)c2csc3c2CCCC3)cc1
- IC50 [1]: 19.2 µM (active)
- IC50 [2]: 7.25 µM (active)
- IC50 [3]: > 100 µM (inactive)
- IC50 [4]: > 100 µM (inactive)

Compound: COc1cc(OC)cc(C(=O)N[C@H](C(=O)OCC(=O)NC(C)c2ccccc2)C(C)C)c1 (stereo not given in full)
- EC50 [7]: 6.68 µM (active)
- EC50 [6]: 16.4 µM (active)

Compound: Cn1c(=O)[nH]c2nnc(-c3ccc(Cl)c(Cl)c3)nc2c1=O
- IC50 [8]: 11.2 µM (active)

Compound: C#CC[N+]1(CC#Cc2cccc(C)c2)CCCCC1
- IC50 [8]: 12 µM (active)

Compound: O=c1c2ccccc2nc(-c2ccco2)n1-c1cccnc1
- IC50 [9]: < 0.4 µM (not active)

Compound: CCO/C=C1\C(=O)N(c2ccccc2)C(=O)c2ccccc21
- IC50 [1]: 6.63 µM (active)
- IC50 [2]: 36.9 µM (active)
- IC50 [3]: 16.6 µM (active)
- IC50 [4]: 50.7 µM (active)

Compound: C=CCn1c2ccccc2c(=O)c2cc(C#Cc3ccccn3)ccc21
- CC50 [10]: 25.1 µM (active)
- IC50 [1]: 17.5 µM (active)
- IC50 [2]: 5.93 µM (active)
- IC50 [3]: 14.1 µM (active)
- IC50 [4]: 20.8 µM (active)

Compound: CCN1CCN(C2=C(Cl)C(=O)N(c3ccc(C(F)(F)F)cc3)C2=O)CC1
- IC50 [11]: > 50 µM (inconclusive)

Compound: CSc1ccc(/C=C/C(=O)c2ccc(O)cc2)cc1
- IC50 [1]: 19.9 µM (active)
- IC50 [2]: 4.77 µM (active)
- IC50 [3]: 9.4 µM (active)
- IC50 [4]: 13.4 µM (active)
- CC50 [12]: 23.8 µM (active)
